For the first assay, the target named is T1, HCV polymerase (Hepatitis C virus genotype 1b, UniProt Q9WMX2).
T1 construct: (His)6 (C)
The assay is described as follows: biochemical. To be noted: NS5B polymerase IC50 μM, polymerase assay of Biological Example 1.
`CCOP(C)(=O)CCCCN(c1nc2oc(-c3ccc(C)cc3)c(C(=O)NC)c2cc1C1CC1)S(C)(=O)=O` (centres unmarked) [Example 23.99993, ethyl 4-(N-(5-cyclopropyl-3-(methylcarbamoyl)-2-p-tolylfuro[2,3-b]pyridin-6-yl)methylsulfonamido)butyl (methyl)phosphinate] displayed an IC50 of 0.011 µM.

`CCOP(C)(=O)CCCCCN(c1nc2oc(-c3ccc(C)cc3)c(C(=O)NC)c2cc1I)S(C)(=O)=O` (centres unmarked) [Example 23.9994, ethyl 5-(N-(5-iodo-3-(methylcarbamoyl)-2-p-tolylfuro[2,3-b]pyridin-6-yl)methylsulfonamido)pentyl (methyl)phosphinate] yielded an IC50 of 0.038 µM.

Still in this assay, the particulars now being: polymerase assay of Biological Example 1; read-out: NS5B polymerase IC50.
In the case of `CCc1ccc(-c2oc3nc(N(CCCC4(C(=O)O)CCOCC4)S(C)(=O)=O)c(C4CC4)cc3c2C(=O)NC)cc1` [Example 29.7, 4-(3-(N-(5-cyclopropyl-2-(4-ethylphenyl)-3-(methylcarbamoyl)furo[2,3-b]pyridin-6-yl)methylsulfonamido)propyl) tetrahydro-2H-pyran-4-carboxylic acid], the half-inhibitory concentration (IC50) came out at 0.002 µM. `CCc1ccc(-c2oc3nc(N(CCCC4(C(=O)O)CCC4)S(C)(=O)=O)c(C4CC4)cc3c2C(=O)NC)cc1` [Example 29.91, 1-(3-(N-(5-cyclopropyl-2-(4-ethylphenyl)-3-(methylcarbamoyl)furo[2,3-b]pyridin-6-yl)methylsulfonamido)propyl) cyclobutanecarboxylic acid]: the IC50 was 0.002 µM. As for `CNC(=O)c1c(-c2ccc(F)cc2)oc2nc(N(CCC(O)CO)S(C)(=O)=O)c(I)cc12` (centres unmarked) [Example 18.94, 6-(N-(3,4-dihyroxybutyl)methylsulfonamido)-2-(4-fluorophenyl)-5-iodo-N-methylfuro[2,3-b]pyridine-3-carboxamide], the IC50 came out at 0.243 µM.

Regarding `CCc1cc2c(C(=O)NC)c(-c3ccc(F)cc3)oc2nc1N(CCCCS(=O)(=O)C(F)(F)F)S(C)(=O)=O` [Example 23.97, 5-ethyl-2-(4-fiuorophenyl)-N-methyl-6-(N-(4-(trifluoromethylsulfonyl)butyl)methylsulfonamido) furo[2,3-b]pyridine-3-carboxamide], the half-maximal inhibitory concentration (IC50) is 0.035 µM.

Regarding `CNC(=O)c1c(-c2ccc(C)cc2)oc2nc(N(CCCC3(C(=O)O)CCN(C)CC3)S(C)(=O)=O)c(C3CC3)cc12` [Example 29.99993, 4-(3-(N-(5-cyclopropyl-3-(methylcarbamoyl)-2-p-tolylfuro[2,3-b]pyridin-6-yl)methylsulfonamido)propyl)-1-methylpiperidine-4-carboxylic acid], the IC50 is 0.003 µM. In the case of `CCc1cc2c(C(=O)NC)c(-c3ccc(F)cc3)oc2nc1N(CCc1ccc(OC)c(OC)c1)S(C)(=O)=O` [Example 22.2, 6-(N-(3,4-dimethoxyphenethyl)methylsulfonamido)-5-ethyl-2-(4-fluorophenyl)-N-methylfuro[2,3-b]pyridine-3-carboxamide], the IC50 was determined as 0.281 µM. For `CNC(=O)c1c(-c2ccc(C)cc2)oc2nc(N(CCCN3CCCC3=O)S(C)(=O)=O)c(C3CC3)cc12` [Example 23.999997, 5-cyclopropyl-N-methyl-6-(N-(3-(2-oxopyrrolidin-1-yl)propyl)methylsulfonamido)-2-p-tolylfuro[2,3-b] pyridine-3-carboxamide], the IC50 was determined as 0.005 µM.

As to `CNC(=O)c1c(-c2ccc(C)cc2)oc2nc(N(CCCC(C)C(=O)O)S(C)(=O)=O)c(C3CC3)cc12` (centres unmarked) [Example 29.9994, 5-(N-(5-cyclopropyl-3-(methylcarbamoyl)-2-p-tolylfuro[2,3-b]pyridin-6-yl)methylsulfonamido)-2-methylpentanoic acid], the IC50 turned out to be 0.002 µM. Same read-out and setting: under `C=CCCCN(c1nc2oc(-c3ccc(C)cc3)c(C(=O)NC)c2cc1C1CC1)S(C)(=O)=O` [Example 29.99, 5-cyclopropyl-N-methyl-6-(N-(pent-4-enyl)methylsulfonamido)-2-p-tolylfuro[2,3-b]pyridine-3-carboxamide] stands 0.014 µM; under `CCc1cc2c(C(=O)NC)c(-c3ccc(F)cc3)oc2nc1N(CCCCC(C)(C)O)S(C)(=O)=O` [Example 22.97, 5-ethyl-2-(4-fluorophenyl)-6-(N-(5-hydroxy-5-methylhexyl)methylsulfonamido)-N-methylfuro[2,3-b]pyridine-3-carboxamide], 0.046 µM. On the same count and under the same terms, under `CNC(=O)c1c(-c2ccc(C)cc2)oc2nc(N(CCC[C@H](C)C(=O)OCOP(=O)(OCc3ccccc3)OCc3ccccc3)S(C)(=O)=O)c(C3CC3)cc12` [Example 49.1, (S)-((bis(benzyloxy)phosphoryl)oxy)methyl 5-(N-(5-cyclopropyl-3-(methylcarbamoyl)-2-(p-tolyl)furo[2,3-b]pyridin-6-yl)methylsulfonamido)-2-methylpentanoate] stands 0.006 µM; under `CCc1ccc(-c2oc3nc(N(CCCC4(C(=O)O)CC4)S(C)(=O)=O)c(C4CC4)cc3c2C(=O)NC)cc1` [Example 29.9993, 1-(3-(N-(5-cyclopropyl-2-(4-ethylphenyl)-3-(methylcarbamoyl)furo[2,3-b]pyridin-6-yl)methylsulfonamido)propyl) cyclopropanecarboxylic acid], 0.002 µM. Consider `CNC(=O)c1c(-c2ccc(C)cc2)oc2nc(N(CCCC(C)(COC)C(=O)O)S(C)(=O)=O)c(C3CC3)cc12` (centres unmarked) [Example 43.1, 5-(N-(5-cyclopropyl-3-(methylcarbamoyl)-2-p-tolylfuro[2,3-b]pyridin-6-yl)methylsulfonamido)-2-(methoxymethyl)-2-methylpentanoic acid], for which the half-inhibitory concentration (IC50) was 0.002 µM.

Take `CNC(=O)c1c(-c2ccc(C)cc2)oc2nc(N(CCOCC(C)(C)C(=O)O)S(C)(=O)=O)c(C3CC3)cc12` [Example 41, 3-(2-(N-(5-cyclopropyl-3-(methylcarbamoyl)-2-p-tolylfuro[2,3-b]pyridin-6-yl)methylsulfonamido)ethoxy)-2,2-dimethylpropanoic acid]: the IC50 is 0.003 µM. With `CCc1cc2c(C(=O)NC)c(-c3ccc(F)cc3)oc2nc1N(CCCN(C)C(C)=O)S(C)(=O)=O` [Example 23.997, 5-ethyl-2-(4-fluorophenyl)-N-methyl-6-(N-(3-(N-methylacetamido)propyl)methylsulfonamido)furo[2,3-b]pyridine-3-carboxamide], the IC50 was 0.058 µM. On the same count and under the same terms, under `CCc1cc2c(C(=O)NC)c(-c3ccc(F)cc3)oc2nc1N(CCCCC(C)O)S(C)(=O)=O` (centres unmarked) [Example 22.93, 5-ethyl-2-(4-fluorophenyl)-6-(N-(5-hydroxyhexyl)methylsulfonamido)-N-methylfuro[2,3-b]pyridine-3-carboxamide] stands 0.047 µM; under `C=C[C@@H](CN(c1nc2oc(-c3ccc(F)cc3)c(C(=O)NC)c2cc1C(=C)C)S(C)(=O)=O)OCc1ccccc1` [Example 35, (S)-6-(N-(2-(benzyloxy)but-3-enyl)methylsulfonamido)-2-(4-fluorophenyl)-N-methyl-5-(prop-1-en-2-yl)furo[2,3-b]pyridine-3-carboxamide], 6.03 µM; under `CCc1ccc(-c2oc3nc(N(CCCC(C)(COC)C(=O)O)S(C)(=O)=O)c(C4CC4)cc3c2C(=O)NC)cc1` (centres unmarked) [Example 43, 5-(N-(5-Cyclopropyl-2-(4-ethylphenyl)-3-(methylcarbamoyl)furo[2,3-b]pyridin-6-yl)methylsulfonamido)-2-(methoxymethyl)-2-methylpentanoic acid], 0.002 µM. As for `CNC(=O)c1c(-c2ccc(F)cc2)oc2nc(N(CC3CCCN(C(=O)OC(C)(C)C)C3)S(C)(=O)=O)c(I)cc12` (centres unmarked) [Example 18.92, tert-butyl 3-((N-(2-(4-fluorophenyl)-5-iodo-3-(methylcarbamoyl)furo[2,3-b]pyridin-6-yl)methylsulfonamido)methyl)piperidine-1-carboxylate], the IC50 is 1.02 µM. For `CNC(=O)c1c(-c2ccc(C)cc2)oc2nc(N(CCCC(=O)O)S(C)(=O)=O)c(C3CC3)cc12` [Example 28.9, 4-(N-(5-cyclopropyl-3-(methylcarbamoyl)-2-p-tolylfuro[2,3-b]pyridin-6-yl)methylsulfonamido) butanoic acid], the IC50 was determined as 0.002 µM. As to `CNC(=O)c1c(-c2ccc(F)cc2)oc2nc(N(C)S(C)(=O)=O)c(CCCCC(=O)N3CCC[C@H]3C(=O)OC)cc12` [Example 4.6, (S)-methyl 1-(5-(2-(4-fluorophenyl)-3-(methylcarbamoyl)-6-(N-methylmethylsulfonamido)furo[2,3-b]pyridin-5-yl)pentanoyl)pyrrolidine-2-carboxylate], the IC50 stood at 0.113 µM. Consider `C=CCCCN(c1nc2oc(-c3ccc(F)cc3)c(C(=O)NC)c2cc1I)S(C)(=O)=O` [Example 18.5, 2-(4-fluorophenyl)-5-iodo-N-methyl-6-(N-(pent-4-enyl)methylsulfonamido)furo[2,3-b]pyridine-3-carboxamide], for which the IC50 stood at 0.449 µM. The same measure, in the same setting: under `CNC(=O)c1c(-c2ccc(F)cc2)oc2nc(N(CCCS(C)(=O)=O)S(C)(=O)=O)c(I)cc12` [Example 18.993, 2-(4-fluorophenyl)-5-iodo-N-methyl-6-(N-(3-(methylsulfonyl)propyl)methylsulfonamido)furo[2,3-b]pyridine-3-carboxamide] stands 0.112 µM. Turning to `CNC(=O)c1c(-c2ccc(C)cc2)oc2nc(N(CCCCC(=O)NCCCC(=O)O)S(C)(=O)=O)c(C3CC3)cc12` [Example 29.99999, 4-(5-(N-(5-cyclopropyl-3-(methylcarbamoyl)-2-p-tolylfuro[2,3-b]pyridin-6-yl)methylsulfonamido)pentanamido)butanoic acid], the half-inhibitory concentration (IC50) came to 0.021 µM.
